“And” between values parts separate entries of the source, which are not always exact repeats. Equal entries are not always repeated.
Experiments:
HeLa S-3 cells = assay: Inhibition of cell growth (SRB), HeLa cells; format: cell-based, human; details: 2 days of treatment, sulforhodamine B, replicate experiments listed singly
Method: D. Measuring the Inhibition of Cell Growth
Growth inhibition (GI50) values were measured with HeLa S-3 cells selected for growth on plastic. […] One day later, a control plate was fixed by addition of TCA to 5%. After five rinses with tap water the plate was air dried and stored at 4° C. Test compounds were added to the remaining plates at 10-fold dilutions between 0.01 and 100 μM. Two days later all plates were fixed as described above. Cells were then stained by the addition of 100 μl per well of 0.4% sulforhodamine B (SRB) in 1% acetic acid for 30 min at 4° C. Wells were then quickly rinsed 5× with acetic acid (1%) and allowed to air dry. The SRB was then solubilized by the addition of 100 μl per well of unbuffered 10 mM Tris base. Dye was quantified by measuring absorbance at 490 nm on a Molecular Devices kinetic microplate reader. Growth at each inhibitor concentration relative to the untreated control was calculated according to the following equation: percent growth=100×(T−To)/(C−To), where T was the average optical density (OD) of the test wells after 2 days of treatment, To was the average OD of the wells in the control plate on day 0 and C was the average OD of untreated wells. Plots of percent growth versus inhibitor concentration were used to determine the GI50.

implanted tumors = assay: Efficacy study, implanted tumors; format: in vivo, athymic mice; details: IP
Method: The efficacy study consists of three compound-treated groups (six mice/group), a positive control-treated group (six mice), and a vehicle-treated control group of 12 mice. Test compounds were administered IP under the treatment schedules listed above (qd×14 or q4d×3), whereas the positive control agent (Taxol) was administered intravenously (IV) at a dosage level of 15 mg/kg/dose for five consecutive days (qd×5). All agents were administered on the basis of individual animal body weight. Treatment began when the implanted tumors were approximately 100 mg in size (range of 65 to 200 mg). The mice were observed daily for survival. Each tumor was measured by caliper in two dimensions and converted to tumor mass using the formula for a prolate ellipsoid (a×b^2/2) and assuming unit density. Tumor measurements and animal body weights were recorded twice weekly. Antitumor activity was assessed by the delay in tumor growth of the treated groups in comparison to the vehicle-treated control group, partial and complete regressions, and tumor-free survivors.

[1] = test system: Tumor Cells in Hollow Fibers; assay: NCI Hollow Fiber Assay; format: in vivo

SMILES	GI50 (HeLa S-3 cells)	other results
CC(C)n1cnc2c(NCc3ccc(-c4ccoc4)cc3)nc(N[C@H]3CC[C@H](N)CC3)nc21 [Compound 164]	100 nM	–
CCCN[C@H]1CC[C@H](Nc2nc(NCc3ccc(-c4cc(C)cs4)cc3)c3ncn(C(C)C)c3n2)CC1 [Compound 162]	300 nM	–
CC(C)n1cnc2c(NCc3ccc(-c4ccccn4)cc3)nc(N[C@H]3CC[C@H](N)CC3)nc21 [Compound 78]	–	T-C (implanted tumors; 0.33 mg/kg, qd × 14): 1.8 days; Tumor free/total (implanted tumors; 0.33 mg/kg, qd × 14): 0/6; T-C (implanted tumors; 0.5 mg/kg, qd × 14): 0.8 days; Tumor free/total (implanted tumors; 0.5 mg/kg, qd × 14): 0/6; T-C (implanted tumors; 1.0 mg/kg, q4d × 3): 1.1 days; Tumor free/total (implanted tumors; 1.0 mg/kg, q4d × 3): 0/6
CC(C)n1cnc2c(NCc3ccc(-c4cccnc4)cc3)nc(N[C@H]3CC[C@H](N)CC3)nc21 [Compound 103]	30 nM and 8 nM and 20 nM and 10 nM	Cell Types Killed [1]: OVCAR 3, OVCAR 5,
CC(C)n1cnc2c(NCc3ccc(-c4ccsc4)cc3)nc(N[C@H]3CC[C@H](N)CC3)nc21 [Compound 12]	–	T-C (implanted tumors; 0.27 mg/kg, q4d × 3): 1.2 days; T-C (implanted tumors; 0.4 mg/kg, q4d × 3): 0.2 days; T-C (implanted tumors; 0.6 mg/kg, q4d × 3): 0.3 days
CC(C)n1cnc2c(NCc3ccc(-c4ccc(F)c(Cl)c4)cc3)nc(N[C@H]3CC[C@H](N)CC3)nc21 [Compound 14]	400 nM	–
Cc1csc(-c2ccc(CNc3nc(N[C@H]4CC[C@H](N)CC4)nc4c3ncn4C(C)C)cc2)c1 [Compound 160]	300 nM	–
CC(=O)N[C@H]1CC[C@H](Nc2nc(NCc3ccc(-c4cc(C)cs4)cc3)c3ncn(C(C)C)c3n2)CC1 [Compound 161]	400 nM	melting point: 222 to 223 °C
CC(=O)N[C@H]1CC[C@H](Nc2nc(NCc3ccc(-c4ccoc4)cc3)c3ncn(C(C)C)c3n2)CC1 [Compound 165]	–	melting point: 241 to 243 °C
CC(C)n1cnc2c(NCc3ccc(-c4ccccc4)cc3)nc(N[C@H]3CCCC[C@H]3NC(=O)Nc3ccccc3)nc21 [Compound 80]	> 100000 nM	–
CC(C)n1cnc2c(NCc3ccc(-c4ccccc4)nc3)nc(N[C@H]3CC[C@H](N)CC3)nc21 [Compound 86]	30 nM	–
CC(C)n1cnc2c(NCc3ccc(-c4cccs4)cc3)nc(N[C@H]3CC[C@H](N)CC3)nc21 [Compound 111]	–	melting point: 109 to 110 °C
Cn1cnc2c(NCc3ccc(-c4ccccc4)cc3)nc(N[C@H]3CC[C@H](N)CC3)nc21 [Compound 139]	–	melting point: 182 to 184 °C
CC(=O)N[C@H]1CC[C@H](Nc2nc(NCc3ccc(-c4ccccc4)nc3)c3ncn(C(C)C)c3n2)CC1 [Compound 87]	–	T-C (implanted tumors; 10 mg/kg, q4d × 3): 2.9 days; Tumor free/total (implanted tumors; 10 mg/kg, q4d × 3): 0/6; T-C (implanted tumors; 15 mg/kg, q4d × 3): 2.5 days; Tumor free/total (implanted tumors; 15 mg/kg, q4d × 3): 0/6
CC(=O)N[C@H]1CC[C@H](Nc2nc(NCc3ccc(-c4cc(C)cc(C)c4)cc3)c3ncn(C(C)C)c3n2)CC1 [Compound 150]	200 nM	–
CC(C)n1cnc2c(NCc3ccc(-c4ccccn4)nc3)nc(N[C@H]3CC[C@H](N)CC3)nc21 [Compound 93]	80 nM	–
CC(C)n1cnc2c(NCc3cccnc3)nc(N[C@@H]3CCCC[C@@H]3N)nc21 [Compound 126, reference compound]	2000 nM and 4000 nM and 6000 nM	–
CC(=O)N[C@H]1CC[C@H](Nc2nc(NCc3ccc(-c4ccccn4)nc3)c3ncn(C(C)C)c3n2)CC1 [Compound 94]	70 nM	Cell Types Killed [1]: COLO205, OVCAR-3, H522

Now from value to compound, other results behind:

GI50 (HeLa S-3 cells)	SMILES	other results
5000 nM	CC(=O)N[C@@H](C)CNc1nc(NCc2ccc(-c3ccccc3)cc2)c2ncn(C(C)C)c2n1 [Compound 108]	–
600 nM and 300 nM	CC[C@H](CO)Nc1nc(NCc2ccc(-c3ccccn3)cc2)c2ncn(C(C)C)c2n1 [Compound 17]	–
8000 nM	CC[C@H](CO)Nc1nc(NCc2ccc(-c3ccc(OC)cc3)cc2)c2ncn(C(C)C)c2n1 [Compound 43]	–
> 10000 nM	CC[C@H](CO)Nc1nc(NCc2ccc(-c3cccc(NC(C)=O)c3)cc2)c2ncn(C(C)C)c2n1 [Compound 5]	–
40 nM and 100 nM	CC(=O)N[C@H]1CC[C@H](Nc2nc(NCc3ccc(-c4cccc(CN)c4)cc3)c3ncn(C(C)C)c3n2)CC1 [Compound 223]	–
3000 nM	CC(=O)NCCCNc1nc(NCc2ccc(-c3ccccc3)cc2)c2ncn(C(C)C)c2n1 [Compound 212]	–
6000 nM	CC[C@H](CO)Nc1nc(NCc2ccc(-c3ccc(C(O)CO)cc3)cc2)c2ncn(C(C)C)c2n1 (some centres unmarked) [Compound 34]	–
3000 nM	CCCNCCCCNc1nc(NCc2ccc(-c3ccccc3)cc2)c2ncn(C(C)C)c2n1 [Compound 215]	–
4000 nM	CCCN(CCC)CCNc1nc(NCc2ccc(-c3ccccc3)cc2)c2ncn(C(C)C)c2n1 [Compound 210]	–
1000 nM and 2000 nM and 900 nM	C=Cc1ccc(-c2ccc(CNc3nc(N[C@H](CC)CO)nc4c3ncn4C(C)C)cc2)cc1 [Compound 33]	–
6000 nM	CC(=O)N[C@H]1CCCC[C@@H]1Nc1nc(NCc2ccc(-c3ccccc3)cc2)c2ncn(C(C)C)c2n1 [Compound 60]	–
30 nM and 10 nM	CC(=O)N[C@H]1CC[C@H](Nc2nc(NCc3ccc(-c4cccc(Cl)c4)cc3)c3ncn(C(C)C)c3n2)CC1 [Compound 110]	–
2000 nM and 400 nM and > 1000 nM	CC[C@H](CO)Nc1nc(NCc2ccc(-c3cccnc3)cc2)c2ncn(C(C)C)c2n1 [Compound 25]	–
400 nM	CC(=O)N[C@H]1CC[C@H](Nc2nc(NCc3ccc(-c4ccc(C)s4)cc3)c3ncn(C(C)C)c3n2)CC1 [Compound 158]	melting point: 225 to 230 °C
40 nM and 10 nM	CC(=O)N[C@H]1CC[C@H](Nc2nc(NCc3ccc(-c4cccc(F)c4)cc3)c3ncn(C(C)C)c3n2)CC1 [Compound 96]	–
